Reference: PubChem BioAssay (NCI)
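Results reflect a 48-hour exposure of cells in 96-well plates to compound at five concentrations. GI50 is the concentration that inhibits growth by half. The concentration for full growth arrest is given as TGI.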

How the values were obtained:
Assay in all cases: NCI anticancer screen, dose series, 48 h
A549 NSCLC = tested on: A549 NSCLC
ACHN renal = tested on: ACHN renal
UACC-62 melanoma = tested on: UACC-62 melanoma
IGROV1 ovarian = tested on: IGROV1 ovarian
SNB-19 CNS = tested on: SNB-19 CNS
SR leukemia = tested on: SR leukemia
T-47D breast = tested on: T-47D breast
CCRF-CEM leukemia = tested on: CCRF-CEM leukemia
SN12C renal = tested on: SN12C renal
NCI-H460 lung = tested on: NCI-H460 lung

| Structure (SMILES) | GI50 (A549 NSCLC) [µM] | TGI (A549 NSCLC) [µM] | GI50 (ACHN renal) [µM] | TGI (ACHN renal) [µM] | GI50 (UACC-62 melanoma) [µM] | TGI (UACC-62 melanoma) [µM] | GI50 (IGROV1 ovarian) [µM] | TGI (IGROV1 ovarian) [µM] | GI50 (SNB-19 CNS) [µM] | TGI (SNB-19 CNS) [µM] | GI50 (SR leukemia) [µM] | TGI (SR leukemia) [µM] | GI50 (T-47D breast) [µM] | TGI (T-47D breast) [µM] | GI50 (CCRF-CEM leukemia) [µM] | TGI (CCRF-CEM leukemia) [µM] | GI50 (SN12C renal) [µM] | TGI (SN12C renal) [µM] | GI50 (NCI-H460 lung) [µM] | TGI (NCI-H460 lung) [µM] |
| --- | --- | --- | --- | --- | --- | --- | --- | --- | --- | --- | --- | --- | --- | --- | --- | --- | --- | --- | --- | --- |
| COC(=O)c1c2c(c(C)[n+]([O-])c1C)C(=O)C(NCc1ccc(OC)cc1)=CC2=O | 2.9 | 10.2 | 2.35 | 9.11 | 1.72 | 3.62 | 1.5 | 3.45 | 2.11 | 5.03 | 2.47 | > 100 | 2.12 | 5.47 | 2.86 | 12.8 | 1.62 | 3.65 | 1.7 | 6.39 |
| Cc1c(C(Cc2ccccc2N(C)C(=O)/C=C\C(=O)O)c2c[nH]c3ccccc23)c2ccccc2n1C (centres undefined) |  | 31.8 |  | 34.3 |  | 34.1 |  | 39.8 |  | 39.4 |  | 46.7 |  |  |  | 37.1 |  | 30 |  | 32.7 |
| NC1=C(O)c2cccc3cccc(c23)C1=O |  | > 100 |  | > 100 |  | > 100 |  | > 100 |  | > 100 |  |  |  |  |  | > 100 |  | > 100 |  |  |
| CC1(C)N=C(N)N=C(N)N1c1ccc(OCCCNC(=O)Nc2ccc(S(=O)(=O)F)cc2)c(Cl)c1 | 0.0732 | > 100 | 4.45 | > 100 | 0.268 | > 100 | 0.281 | > 100 | 1.08 | > 100 | 0.0376 | > 100 | 5.65 | > 100 | 0.208 | > 100 | 0.111 | > 100 | 0.0486 | > 37.6 |
| O=C(O)/C=C/c1ccc(O)c(O)c1 |  | > 100 |  | > 100 |  | > 100 |  | > 100 |  | > 100 |  |  |  |  |  | > 100 |  | > 100 |  | > 100 |
| Cc1cc(N(CCC#N)CCC#N)ccc1/C=C(\NC(=O)/C=C/c1ccccc1)C(=O)N=[N+]=[N-] |  | > 100 |  | > 100 |  | > 100 |  | > 100 |  | > 100 |  |  |  |  |  | > 100 |  | > 100 |  | > 100 |
| COc1cccc2c1nc(C(F)F)n2-c1nc(-c2ccc(NS(=O)(=O)CCN(C)C)cc2)nc(N2CCOCC2)n1 | 0.174 | 4.33 | 0.115 | 11.2 | 0.134 | 1.45 | 0.0261 | 0.154 | 1.28 | > 100 | 0.319 | 3.87 | 0.0177 | 0.0882 | 0.257 | 20.5 | 0.305 | > 100 | 0.0883 | 1.33 |
| CC(=O)N1C/C(=C\c2ccccc2)C(=O)/C(=C/c2ccccc2)C1 |  | 55.1 |  | 32.4 |  | 34.2 |  | 37.4 |  | 31.5 |  | 17.5 |  |  |  | 11.3 |  | 28.7 |  | 40.2 |
| COC(=O)C(=O)C(C(=O)C(=O)Nc1ccc(Cl)c(Cl)c1)c1nc2ccc(C(=O)c3ccccc3)cc2[nH]c1=O (centres undefined) |  | > 100 |  | > 100 |  | > 100 |  | > 100 |  | > 100 |  |  |  | > 100 |  | > 100 |  | > 100 |  |  |
| O=C1C2C3CC4C5C3C1C5C1(SCCS1)C42 (centres undefined) |  | > 100 |  | > 100 |  | > 100 |  | > 100 |  | > 100 |  | > 100 |  |  |  | > 100 |  | > 100 |  | > 100 |
| C/C(=N/NC(=O)c1ccccc1S(N)(=O)=O)C(CN1CCCCC1)C(C1=C(O)C2C=CC=CC2OC1=O)c1ccccc1 (centres undefined) |  | > 100 |  | > 100 |  | > 100 |  | > 100 |  | > 100 |  | 61.8 |  |  |  | 67.7 |  | > 100 |  | > 100 |
| COC(=O)[C@@H](C)C[C@H](Cc1ccccc1)NC(=O)c1nc([C@@H](C[C@H](C(C)C)N(C)C(=O)[C@@H](NC(=O)[C@H]2C[C@H](O)CCN2C)C(C)C)OC(C)=O)sc1C(C)C | 0.0519 | > 11.1 | 0.101 | > 11.1 | 0.00243 | > 11.1 | 0.00324 | > 11.1 | 0.00424 | > 11.1 | 0.00126 | > 11.1 |  |  | 0.00525 | > 11.1 | 0.00671 | 3.3 | 0.0076 | > 11.1 |
| Cn1cc(C2NC(=O)c3ccccc3N2)c2ccccc21 (centres undefined) |  | > 100 |  | > 92.8 |  |  |  | > 100 |  | > 91 |  |  |  |  |  | 0.877 |  | > 100 |  | > 42.8 |
| CC(C)(CN1CCCCC1)C(=O)/C=C/c1ccccc1 |  | 52.7 |  | 96.6 |  | 53.2 |  | 86.6 |  | 34.6 |  |  |  |  |  | 35.4 |  | 42.3 |  | 66.9 |
| COc1nc(NC2OC(COC(C)=O)C(OC(C)=O)C(OC(C)=O)C2OC(C)=O)c(N=CC=Nc2c(NC3OC(COC(C)=O)C(OC(C)=O)C(OC(C)=O)C3OC(C)=O)nc(OC)[nH]c2=O)c(=O)[nH]1 (centres undefined) |  | > 100 |  | > 100 |  | > 100 |  | > 100 |  | > 100 |  |  |  |  |  | > 100 |  | > 100 |  |  |
| N#CC(C(=O)CCCC(=O)Nc1ccccc1[N+](=O)[O-])c1c(Cl)cccc1Cl (centres undefined) |  | > 100 |  | > 100 |  | > 100 |  | > 100 |  | > 100 |  | > 100 |  |  |  | > 100 |  | > 100 |  | > 100 |
| O=C(/C=C/c1ccccc1)NC1C=Nc2ccc([N+](=O)[O-])cc2NC1=O (centres undefined) |  | > 100 |  | > 100 |  | > 100 |  | > 100 |  | > 100 |  | > 100 |  |  |  | > 100 |  | > 100 |  | > 100 |
| O=C(CCc1n[nH]c(=S)o1)Nc1cc(Cl)ccc1Cl |  | > 100 |  | > 100 |  | > 100 |  | > 100 |  | > 100 |  |  |  |  |  | > 100 |  | > 100 |  | > 100 |
| COc1ccc(-c2csc3c2-n2cccc2C3=O)cc1 | 0.0664 | > 100 |  | > 90.9 | 0.232 | > 100 | 0.0229 | > 88.5 | 0.0394 | > 100 | 0.00314 |  |  |  | 0.0299 | > 100 | 0.0681 | > 100 | 0.273 | > 43 |
